The subject of this data set is Influenza, Ann Arbor virus. The experiment in a line: Influenza Ann Arbor in mice, oral; schedule by table; late read day 5 (Tables 15, 25, 29, 30), 6 (18, 20, 22, 23, 26, 27, 28, 54), 7 (14, 19, 21, 24, 53, 56), 8 (16, 17, 51), 9 (11, 55). As to conditions: for Toxic: oral, mouse. It is filed as in vivo, mouse.

Counter-ions that a name gives are not always drawn.

In the case of `CCOC(=O)CC(C)=NNC(N)=S` [acetoacetic acid, ethyl ester, thiosemicarbazone], the “No. animals surviving after 5-7 days” value amounted to 8 (total dose 30 pg); 4 (total dose 300 pg); 5 (total dose 3 ng); 5 (total dose 30 ng); 4 (total dose 300 ng); 6 (total dose 3 μg). Further, the “No. animals surviving after 5-7 days” value is recorded as 8 (total dose 30 μg), 7 (total dose 300 μg) and 5 (total dose 3 mg). For the same compound, the Survivors is, setting by setting: (total dose 30 pg) 0; (total dose 300 pg) 0; (total dose 3 ng) 0; (total dose 30 ng) 0; (total dose 300 ng) 0; (total dose 3 μg) 0. Besides, the Survivors runs as follows: (total dose 30 μg) 0; (total dose 300 μg) 0; (total dose 3 mg) 0.
Turning to `NC(N)=NN=Cc1c(Cl)cccc1Cl` [[(2,6-dichlorobenzylidine)amino]guanidine acetate], the “No. animals surviving after 5-7 days” value came out at 4 (total dose 30 pg); 2 (total dose 300 pg); 4 (total dose 3 ng); 1 (total dose 30 ng); 1 (total dose 300 ng); 2 (total dose 3 μg). Moreover, the “No. animals surviving after 5-7 days” value reads like this: (total dose 30 μg) 3; (total dose 300 μg) 1. Moreover, the Survivors runs as follows: (total dose 30 pg) 0; (total dose 300 pg) 1; (total dose 3 ng) 0; (total dose 30 ng) 0; (total dose 300 ng) 0; (total dose 3 μg) 0. The Survivors turned out to be 0 (total dose 30 μg) and 0 (total dose 300 μg). For the same compound, the Toxic entry (total dose 3 mg) was “Toxic”.
For `NC(N)=S` [Thiourea], the “No. animals surviving after 5-7 days” value (total dose 30 pg) is 2; the “No. animals surviving after 5-7 days” value (total dose 300 pg) is recorded as 4; the “No. animals surviving after 5-7 days” value (total dose 3 ng) worked out at 3; the “No. animals surviving after 5-7 days” value (total dose 30 ng) came to 4; the “No. animals surviving after 5-7 days” value (total dose 300 ng) amounted to 2; the “No. animals surviving after 5-7 days” value (total dose 3 μg) is given as 7. Moreover, the “No. animals surviving after 5-7 days” value stood at 3 (total dose 30 μg), 6 (total dose 300 μg) and 5 (total dose 3 mg). Besides, the Survivors stood at 0 (total dose 30 pg); 0 (total dose 300 pg); 1 (total dose 3 ng); 0 (total dose 30 ng); 0 (total dose 300 ng); 0 (total dose 3 μg). Further, the Survivors is, setting by setting: (total dose 30 μg) 0; (total dose 300 μg) 1; (total dose 3 mg) 0.
Regarding `NC(=S)NN=C1Cc2ccccc2C1` [2-indanone, thiosemicarbazone], the “No. animals surviving after 5-7 days” value reads like this: (total dose 30 pg) 8; (total dose 300 pg) 8; (total dose 3 ng) 5; (total dose 30 ng) 9; (total dose 300 ng) 8; (total dose 3 μg) 8. Further, the “No. animals surviving after 5-7 days” value reads like this: (total dose 30 μg) 8; (total dose 300 μg) 6. The Survivors by setting is: (total dose 30 pg) 1; (total dose 300 pg) 0; (total dose 3 ng) 0; (total dose 30 ng) 0; (total dose 300 ng) 1; (total dose 3 μg) 1. For the same compound, the Survivors is reported as 0 (total dose 30 μg) and 0 (total dose 300 μg). Also, under “total dose 3 mg”, the Toxic result was “Toxic”.
As to `CNN` [Methylhydrazine, methylhydrazine], the “No. animals surviving after 5-7 days” value was found to be 2 (total dose 30 pg); 3 (total dose 300 pg); 3 (total dose 3 ng); 4 (total dose 30 ng); 1 (total dose 300 ng); 3 (total dose 3 μg). The “No. animals surviving after 5-7 days” value reads like this: (total dose 30 μg) 3; (total dose 300 μg) 1. For the same compound, the Survivors is 1 (total dose 30 pg); 0 (total dose 300 pg); 1 (total dose 3 ng); 1 (total dose 30 ng); 0 (total dose 300 ng); 0 (total dose 3 μg). Besides, the Survivors came out at 1 (total dose 30 μg) and 0 (total dose 300 μg). In addition, the Toxic result (total dose 3 mg) is recorded as “Toxic”.
Consider `CN(C)N` [1,1-dimethylhydrazine], for which the “No. animals surviving after 5-7 days” value (total dose 30 pg) was 5; the “No. animals surviving after 5-7 days” value (total dose 300 pg) was 3; the “No. animals surviving after 5-7 days” value (total dose 3 ng) was 3; the “No. animals surviving after 5-7 days” value (total dose 30 ng) worked out at 2; the “No. animals surviving after 5-7 days” value (total dose 300 ng) stood at 3; the “No. animals surviving after 5-7 days” value (total dose 3 μg) is recorded as 2. The “No. animals surviving after 5-7 days” value is, setting by setting: (total dose 30 μg) 1; (total dose 300 μg) 3; (total dose 3 mg) 2. In addition, the Survivors is on record as 0 (total dose 30 pg); 0 (total dose 300 pg); 1 (total dose 3 ng); 0 (total dose 30 ng); 0 (total dose 300 ng); 0 (total dose 3 μg). Moreover, the Survivors (total dose 30 μg) came out at 1, the Survivors (total dose 300 μg) was found to be 0 and the Survivors (total dose 3 mg) was found to be 0.
Turning to `CCC(C)=NNC(=N)N.O=[N+]([O-])O` [1-(sec-butylideneamino)guanidine nitrate, 1-(sec-butylideneamino)guanidine, nitrate], the “No. animals surviving after 5-7 days” value turned out to be 0 (total dose 3 ng); 1 (total dose 30 ng); 3 (total dose 300 ng); 0 (total dose 3 μg); 2 (total dose 30 μg); 0 (total dose 300 μg). Further, the Survivors (total dose 3 ng) is given as 0; the Survivors (total dose 30 ng) was determined as 0; the Survivors (total dose 300 ng) was determined as 2; the Survivors (total dose 3 μg) came to 0; the Survivors (total dose 30 μg) was determined as 2; the Survivors (total dose 300 μg) was 0.
For the compound `CNNC` [1,2-dimethylhydrazine, dihydrochloride], the “No. animals surviving after 5-7 days” value (total dose 30 pg) was 6; the “No. animals surviving after 5-7 days” value (total dose 300 pg) came to 2; the “No. animals surviving after 5-7 days” value (total dose 3 ng) came to 3; the “No. animals surviving after 5-7 days” value (total dose 30 ng) is 3; the “No. animals surviving after 5-7 days” value (total dose 300 ng) was determined as 5; the “No. animals surviving after 5-7 days” value (total dose 3 μg) turned out to be 3. The “No. animals surviving after 5-7 days” value (total dose 30 μg) is on record as 4, the “No. animals surviving after 5-7 days” value (total dose 300 μg) is 6 and the “No. animals surviving after 5-7 days” value (total dose 3 mg) is recorded as 3. In addition, the Survivors (total dose 30 pg) is 1; the Survivors (total dose 300 pg) is listed as 0; the Survivors (total dose 3 ng) came to 0; the Survivors (total dose 30 ng) was 1; the Survivors (total dose 300 ng) is given as 0; the Survivors (total dose 3 μg) stood at 0. The Survivors was determined as 0 (total dose 30 μg), 0 (total dose 300 μg) and 0 (total dose 3 mg).
For the compound `CCCC(C)=NNC(N)=S` [2-pentanone, thiosemicarbazone], the “No. animals surviving after 5-7 days” value came out at 2 (total dose 30 pg); 2 (total dose 300 pg); 2 (total dose 3 ng); 2 (total dose 30 ng); 1 (total dose 300 ng); 1 (total dose 3 μg). The “No. animals surviving after 5-7 days” value was 1 (total dose 30 μg) and 0 (total dose 300 μg). Further, the Survivors is given as 0 (total dose 30 pg); 0 (total dose 300 pg); 0 (total dose 3 ng); 0 (total dose 15 ng); 0 (total dose 22.5 ng); 0 (total dose 30 ng). Further, the Survivors is, setting by setting: (total dose 75 ng) 0; (total dose 150 ng) 0; (total dose 225 ng) 0; (total dose 300 ng) 0; (total dose 750 ng) 0; (total dose 1.5 μg) 0. The compound further returned a Survivors (total dose 2.25 μg) of 1, a Survivors (total dose 3 μg) of 0, a Survivors (total dose 30 μg) of 1 and a Survivors (total dose 300 μg) of 0. Also, the “No. animals surviving after 7 days” value is, setting by setting: (total dose 15 ng) 3; (total dose 22.5 ng) 0; (total dose 75 ng) 1; (total dose 150 ng) 0; (total dose 225 ng) 3; (total dose 750 ng) 2. Also, the “No. animals surviving after 7 days” value is recorded as 2 (total dose 1.5 μg) and 1 (total dose 2.25 μg).
As for `Cc1ccccc1NC(=S)NN=C1CCCC1` [cyclopentanone, 3-thio-4-o-tolyl-semicarbazone], the “No. animals surviving after 5-7 days” value by setting is: (total dose 30 pg) 6; (total dose 300 pg) 9; (total dose 3 ng) 9; (total dose 30 ng) 9; (total dose 300 ng) 6; (total dose 3 μg) 6. Also, the “No. animals surviving after 5-7 days” value was 9 (total dose 300 μg) and 8 (total dose 3 mg). The compound also showed a Survivors (total dose 30 pg) of 0; a Survivors (total dose 300 pg) of 0; a Survivors (total dose 3 ng) of 0; a Survivors (total dose 300 ng) of 0; a Survivors (total dose 3 μg) of 0; a Survivors (total dose 30 μg) of 0. In addition, the Survivors came to 0 (total dose 300 μg) and 0 (total dose 3 mg).
